Assays:
Beagle dogs = conditions: iv 10 mg·kg^−1·h^−1; Höhne 2004; cited from earlier work
unanesthetized dogs = assay: Effect of inhaled acetazolamide in unanesthetized dogs during hypoxia (vs iv and oral); assay type: in vivo, dog
[1] = inhaled 750 mg after 1 h of normoxia, hypoxia 2nd h
[2] = inhaled 750 mg after 1 h of normoxia, hypoxia 3rd h
[3] = inhaled 750 mg after 1 h of normoxia, normoxia 1st h
[4] = iv 2 mg/kg bolus + 2 mg/kg/h, hypoxia 2nd h
[5] = iv 2 mg/kg bolus + 2 mg/kg/h, hypoxia 3rd h
[6] = iv 2 mg/kg bolus + 2 mg/kg/h, normoxia 1st h
[7] = oral 5 mg/kg -12 h and -1 h, hypoxia 2nd h
[8] = oral 5 mg/kg -12 h and -1 h, hypoxia 3rd h
[9] = oral 5 mg/kg -12 h and -1 h, normoxia 1st h

CC(=O)Nc1nnc(S(N)(=O)=O)s1 [AZ, acetazolamide]
effect on HPV in conscious dogs (Beagle dogs): totally abolished | BEa (unanesthetized dogs; [1]): -5.2 ± 0.6 mM | CO (unanesthetized dogs; [1]): 2.3 ± 0.2 L/min | CVP (unanesthetized dogs; [1]): 2.5 ± 0.3 cmH2O | GFR (unanesthetized dogs; [1]): 3.7 ± 0.3 mL·min | HCO3a (unanesthetized dogs; [1]): 17.1 ± 0.6 mM | HR (unanesthetized dogs; [1]): 86 ± 6 beats/min | MAP (unanesthetized dogs; [1]): 105 ± 5 mmHg | MPAP (unanesthetized dogs; [1]): 15 ± 1 mmHg | PCWP (unanesthetized dogs; [1]): 3.9 ± 0.4 cmH2O | PVR (unanesthetized dogs; [1]): 395 ± 29 dyn s^−1 cm | PaCO2 (unanesthetized dogs; [1]): 26 ± 1 Torr | PaO2 (unanesthetized dogs; [1]): 39 ± 1 Torr | UNaV (unanesthetized dogs; [1]): 8.0 ± 1.3 µmol·min | UV (unanesthetized dogs; [1]): 99 ± 16 μ min^−1 kg^−1 | VE (unanesthetized dogs; [1]): 5.5 ± 0.5 L/min | BEa (unanesthetized dogs; [2]): -5.7 ± 0.7 mM | CO (unanesthetized dogs; [2]): 2.5 ± 0.1 L/min | CVP (unanesthetized dogs; [2]): 2.1 ± 0.2 cmH2O | GFR (unanesthetized dogs; [2]): 3.6 ± 0.3 mL·min | HCO3a (unanesthetized dogs; [2]): 16.4 ± 0.5 mM | HR (unanesthetized dogs; [2]): 100 ± 8 beats/min | MAP (unanesthetized dogs; [2]): 105 ± 5 mmHg | MPAP (unanesthetized dogs; [2]): 15 ± 1 mmHg | PCWP (unanesthetized dogs; [2]): 3.6 ± 0.2 cmH2O | PVR (unanesthetized dogs; [2]): 388 ± 30 dyn s^−1 cm | PaCO2 (unanesthetized dogs; [2]): 25 ± 1 Torr | PaO2 (unanesthetized dogs; [2]): 36 ± 1 Torr | UNaV (unanesthetized dogs; [2]): 5.1 ± 0.7 µmol·min | UV (unanesthetized dogs; [2]): 81 ± 15 μ min^−1 kg^−1 | VE (unanesthetized dogs; [2]): 5.7 ± 0.4 L/min | BEa (unanesthetized dogs; [3]): -3.9 ± 0.6 mM | CO (unanesthetized dogs; [3]): 2.5 ± 0.1 L/min | CVP (unanesthetized dogs; [3]): 2.8 ± 0.3 cmH2O | GFR (unanesthetized dogs; [3]): 4.0 ± 0.4 mL·min | HCO3a (unanesthetized dogs; [3]): 20.2 ± 0.5 mM | HR (unanesthetized dogs; [3]): 85 ± 5 beats/min | MAP (unanesthetized dogs; [3]): 92 ± 4 mmHg | MPAP (unanesthetized dogs; [3]): 13 ± 1 mmHg | PCWP (unanesthetized dogs; [3]): 4.3 ± 0.4 cmH2O | PVR (unanesthetized dogs; [3]): 298 ± 21 dyn s^−1 cm | PaCO2 (unanesthetized dogs; [3]): 36 ± 1 Torr | PaO2 (unanesthetized dogs; [3]): 101 ± 2 Torr | UNaV (unanesthetized dogs; [3]): 0.4 ± 0.1 µmol·min | UV (unanesthetized dogs; [3]): 33 ± 8 μ min^−1 kg^−1 | VE (unanesthetized dogs; [3]): 3.2 ± 0.2 L/min | pulmonary vascular response to hypoxia (unanesthetized dogs; inhaled, 12% oxygen for two hours): successful in reducing | BEa (unanesthetized dogs; [4]): -4.6 ± 0.4 mM | CO (unanesthetized dogs; [4]): 3.0 ± 0.4 L/min | CVP (unanesthetized dogs; [4]): 2.2 ± 0.3 cmH2O | GFR (unanesthetized dogs; [4]): 3.4 ± 0.3 mL·min | HCO3a (unanesthetized dogs; [4]): 18.5 ± 0.5 mM | HR (unanesthetized dogs; [4]): 103 ± 6 beats/min | MAP (unanesthetized dogs; [4]): 102 ± 8 mmHg | MPAP (unanesthetized dogs; [4]): 15 ± 1 mmHg | PCWP (unanesthetized dogs; [4]): 3.5 ± 0.3 cmH2O | PVR (unanesthetized dogs; [4]): 312 ± 36 dyn s^−1 cm | PaCO2 (unanesthetized dogs; [4]): 30 ± 1 Torr | PaO2 (unanesthetized dogs; [4]): 37 ± 1 Torr | UNaV (unanesthetized dogs; [4]): 4.0 ± 0.6 µmol·min | UV (unanesthetized dogs; [4]): 135 ± 27 μ min^−1 kg^−1 | VE (unanesthetized dogs; [4]): 6.5 ± 0.5 L/min | BEa (unanesthetized dogs; [5]): -6.1 ± 0.6 mM | CO (unanesthetized dogs; [5]): 2.9 ± 0.5 L/min | CVP (unanesthetized dogs; [5]): 2.3 ± 0.4 cmH2O | GFR (unanesthetized dogs; [5]): 3.8 ± 0.3 mL·min | HCO3a (unanesthetized dogs; [5]): 17.1 ± 0.5 mM | HR (unanesthetized dogs; [5]): 106 ± 7 beats/min | MAP (unanesthetized dogs; [5]): 103 ± 7 mmHg | MPAP (unanesthetized dogs; [5]): 14 ± 1 mmHg | PCWP (unanesthetized dogs; [5]): 3.7 ± 0.3 cmH2O | PVR (unanesthetized dogs; [5]): 305 ± 26 dyn s^−1 cm | PaCO2 (unanesthetized dogs; [5]): 27 ± 1 Torr | PaO2 (unanesthetized dogs; [5]): 38 ± 1 Torr | UNaV (unanesthetized dogs; [5]): 5.4 ± 1.2 µmol·min | UV (unanesthetized dogs; [5]): 68 ± 12 μ min^−1 kg^−1 | VE (unanesthetized dogs; [5]): 6.9 ± 0.5 L/min | BEa (unanesthetized dogs; [6]): -4.0 ± 0.5 mM | CO (unanesthetized dogs; [6]): 2.6 ± 0.2 L/min | CVP (unanesthetized dogs; [6]): 1.8 ± 0.3 cmH2O | GFR (unanesthetized dogs; [6]): 3.5 ± 0.3 mL·min | HCO3a (unanesthetized dogs; [6]): 20.2 ± 0.4 mM | HR (unanesthetized dogs; [6]): 74 ± 4 beats/min | MAP (unanesthetized dogs; [6]): 95 ± 5 mmHg | MPAP (unanesthetized dogs; [6]): 13 ± 1 mmHg | PCWP (unanesthetized dogs; [6]): 3.8 ± 0.5 cmH2O | PVR (unanesthetized dogs; [6]): 283 ± 37 dyn s^−1 cm | PaCO2 (unanesthetized dogs; [6]): 34 ± 1 Torr | PaO2 (unanesthetized dogs; [6]): 107 ± 3 Torr | UNaV (unanesthetized dogs; [6]): 3.8 ± 0.6 µmol·min | UV (unanesthetized dogs; [6]): 102 ± 12 μ min^−1 kg^−1 | VE (unanesthetized dogs; [6]): 4.1 ± 0.4 L/min | BEa (unanesthetized dogs; [7]): -6.3 ± 0.6 mM | CO (unanesthetized dogs; [7]): 2.7 ± 0.2 L/min | CVP (unanesthetized dogs; [7]): 1.9 ± 0.2 cmH2O | GFR (unanesthetized dogs; [7]): 3.3 ± 0.2 mL·min | HCO3a (unanesthetized dogs; [7]): 16.7 ± 0.6 mM | HR (unanesthetized dogs; [7]): 109 ± 5 beats/min | MAP (unanesthetized dogs; [7]): 106 ± 6 mmHg | MPAP (unanesthetized dogs; [7]): 17 ± 1 mmHg | PCWP (unanesthetized dogs; [7]): 3.5 ± 0.3 cmH2O | PVR (unanesthetized dogs; [7]): 375 ± 33 dyn s^−1 cm | PaCO2 (unanesthetized dogs; [7]): 28 ± 1 Torr | PaO2 (unanesthetized dogs; [7]): 37 ± 1 Torr | UNaV (unanesthetized dogs; [7]): 1.7 ± 0.5 µmol·min | UV (unanesthetized dogs; [7]): 84 ± 15 μ min^−1 kg^−1 | VE (unanesthetized dogs; [7]): 6.6 ± 0.4 L/min | BEa (unanesthetized dogs; [8]): -6.4 ± 0.4 mM | CO (unanesthetized dogs; [8]): 2.3 ± 0.1 L/min | CVP (unanesthetized dogs; [8]): 1.9 ± 0.2 cmH2O | GFR (unanesthetized dogs; [8]): 3.3 ± 0.2 mL·min | HCO3a (unanesthetized dogs; [8]): 16.1 ± 0.4 mM | HR (unanesthetized dogs; [8]): 102 ± 7 beats/min | MAP (unanesthetized dogs; [8]): 107 ± 6 mmHg | MPAP (unanesthetized dogs; [8]): 17 ± 1 mmHg | PCWP (unanesthetized dogs; [8]): 3.5 ± 0.3 cmH2O | PVR (unanesthetized dogs; [8]): 431 ± 45 dyn s^−1 cm | PaCO2 (unanesthetized dogs; [8]): 26 ± 1 Torr | PaO2 (unanesthetized dogs; [8]): 37 ± 1 Torr | UNaV (unanesthetized dogs; [8]): 1.5 ± 0.4 µmol·min | UV (unanesthetized dogs; [8]): 55 ± 8 μ min^−1 kg^−1 | VE (unanesthetized dogs; [8]): 6.3 ± 0.2 L/min | BEa (unanesthetized dogs; [9]): -6.5 ± 0.3 mM | CO (unanesthetized dogs; [9]): 2.3 ± 0.2 L/min | CVP (unanesthetized dogs; [9]): 2.3 ± 0.3 cmH2O | GFR (unanesthetized dogs; [9]): 3.0 ± 0.2 mL·min | HCO3a (unanesthetized dogs; [9]): 17.6 ± 0.3 mM | HR (unanesthetized dogs; [9]): 85 ± 3 beats/min | MAP (unanesthetized dogs; [9]): 95 ± 3 mmHg | MPAP (unanesthetized dogs; [9]): 12 ± 1 mmHg | PCWP (unanesthetized dogs; [9]): 3.9 ± 0.3 cmH2O | PVR (unanesthetized dogs; [9]): 298 ± 27 dyn s^−1 cm | PaCO2 (unanesthetized dogs; [9]): 32 ± 1 Torr | PaO2 (unanesthetized dogs; [9]): 108 ± 2 Torr | UNaV (unanesthetized dogs; [9]): 1.4 ± 0.6 µmol·min | UV (unanesthetized dogs; [9]): 50 ± 9 μ min^−1 kg^−1 | VE (unanesthetized dogs; [9]): 4.6 ± 0.3 L/min
